This is an account of results in paper PMC7582667, “A Series of Isatin-Hydrazones with Cytotoxic Activity and CDK2 Kinase Inhibitory Activity: A Potential Type II ATP Competitive Inhibitor” (Molecules, 2020).

Series [1] concerns A2780 (human ovary adenocarcinoma) cell lines. The series is described as follows: MTT cytotoxicity assay, A2780. Type of series: cell-based. To be noted: A2780 cells; for IC50: Homo sapiens, A2780, MTT assay, triplicates; for inhibitory activity against A2780 cell lines (in words): MTT assay. The protocol: (§1) The cytotoxicity of the synthesized compounds was evaluated by MTT assay, as previously described. Two cancer cell lines, MCF7 (human breast adenocarcinoma) and A2780 (human ovary adenocarcinoma), were used in this study, which were obtained from the ATCC (Rockville, MD, USA). They were sub-cultured in RPMI-1640 media (supplemented with 10% FBS and 1% antibiotics) at 37 °C and 5% CO2. Additionally, compounds were prepared at the same medium to obtain serial dilutions (50, 25, 19,1 and 0.1 µM). The two cell lines were separately cultured in 96-well plates (3 × 10^3/well) and incubated at 37 °C overnight. The following day, before treating the cells with the compounds, each well of the T0 plate was treated with 50 μL MTT solution (2 mg/mL in phosphate buffered saline) and then incubated for 2–4 h. The media were aspirated, and the formazan crystals were solubilized by adding 150 µL DMSO. Absorbance was read on a multi-plate reader (BioRad) at […]. Optical density of the purple formazan A550 was proportional to the number of viable cells. […] The data were obtained from triplicates and analyzed using statistical software.
Background: Formazan colour is commonly taken as a measure of viable cells.

The test system of series [2] is MCF7 (human breast adenocarcinoma) cell lines. The experiment in a line: MTT cytotoxicity assay, MCF7. To be noted: MCF7 cells, triplicates. It counts as cell-based. The protocol: as §1
For another series, the target named is T1, CDK2/CyclinA2 (Homo sapiens, UniProt P24941).
T1 construct: purchased #79599
The series is described as follows: In vitro CDK2 inhibitory activity (CDK2 Assay Kit, Kinase-Glo MAX luminescence). It counts as biochemical. To be noted: triplicate measurements, read-out: CDK2 Protein Kinase (IC50 in µM). As for the experimental part:
The CDK2 Assay Kit is designed to measure CDK2/CyclinA2 activity for screening and profiling applications, using Kinase-Glo® MAX as a detection reagent. The CDK2 Assay Kit comes in a convenient 96-well format, with enough purified recombinant CDK2/CyclinA2 enzyme, CDK substrate peptide, ATP and kinase assay buffer for 100 enzyme reactions. […] The CDK2/CyclinA2 activity at a single dose concentration of 10μM was performed, where the Kinase-Glo MAX luminescence kinase assay kit (Promega#V6071) was used. The compounds were diluted in 10% DMSO and 5 μL of the dilution was added to a 50 μL reaction so that the final concentration of DMSO was 1% in all of the reactions. All of the enzymatic reactions were conducted at 30 °C for 40 min. The 50 μL reaction mixture contained 40 mM Tris, pH 7.4, 10 mM MgCl2, 0.1 mg/mL BSA, 1 mM DTT, […], Kinase substrate and the enzyme (CDK2/CyclinA2). After the enzymatic reaction, 50 μL of Kinase-Glo® MAX Luminescence kinase assay solution was added to each reaction and the plates were incubated for 5 min at room temperature. Luminescence signal was measured using a Bio Tek Synergy 2 microplate reader.

Values joined by “and” are separate entries in the source; they are usually repeats but may differ in a detail not shown here. Identical values can stand only once.

As a reminder, the IC50 is the concentration that inhibits the measured activity by half. Usually melting point stands for the temperature of the solid-liquid transition. For `Cc1ccccc1C=NN=C1C(=O)Nc2ccccc21` [Compound 4a, 3-((2-Methylbenzylidene)hydrazono)indolin-2-one], the melting point was in the range of 198 to 199 °C. Also, the IC50 in series [1] is greater than 50 µM. The same compound had an IC50 in series [2] of 10.82 ± 0.05 µM.
The matching figures for `Cc1cccc(C=NN=C2C(=O)Nc3ccccc32)c1` [Compound 4b, 3-((3-Methylbenzylidene)hydrazono)indolin-2-one]: 183 to 184 °C, greater than 50 µM and 14.7 µM.
The matching figures for `Cc1ccc(C=NN=C2C(=O)Nc3ccccc32)cc1` [Compound 4c, 3-((4-Methylbenzylidene)hydrazono)indolin-2-one]: 230 to 231 °C, greater than 50 µM and 32.5 ± 0.52 µM.
The matching figures for `CSc1ccc(C=NN=C2C(=O)Nc3ccccc32)cc1` [Compound 4d, 3-((4-(Methylthio)benzylidene)hydrazono)indolin-2-one]: 204 to 205 °C, greater than 50 µM and 24 ± 2.61 µM.
Regarding `O=C1Nc2ccccc2C1=NN=Cc1ccccc1Br` [Compound 4e, 3-((2-Bromobenzylidene)hydrazono)indolin-2-one], the melting point lay within 233 to 234 °C. Also, in series [1], the IC50 was determined as 19 ± 2.52 µM and the “inhibitory activity against A2780 cell lines (in words)” value (from here on “inhibitory activity”) is listed as “a little inhibitory activity”. The midpoint of inhibition in series [2], the IC50, lay at 5.46 ± 0.71 µM.
The matching figures for `O=C1Nc2ccccc2C1=NN=Cc1cccc(Br)c1` [Compound 4f, 3-((3-Bromobenzylidene)hydrazono)indolin-2-one]: 182 to 183 °C, 25 ± 2.82 µM, “a little inhibitory activity” and 9.07 ± 0.59 µM.
`O=C1Nc2ccccc2C1=NN=Cc1ccc(Br)cc1` [Compound 4g, 3-((4-Bromobenzylidene)hydrazono)indolin-2-one] showed a melting point of 267 to 268 °C. The same compound gave an IC50 in series [1] greater than 50 µM. Besides, the midpoint of inhibition in series [2], the IC50, lay at 15.7 ± 0.78 µM.
The matching figures for `COc1cc(C)c(C=NN=C2C(=O)Nc3ccccc32)c(C)c1` [Compound 4h, 3-((4-Methoxy-2,6-dimethylbenzylidene)hydrazono)indolin-2-one]: 251 to 252 °C, greater than 50 µM and 25.78 ± 0.13 µM.
The corresponding values for `COc1ccc(C=NN=C2C(=O)Nc3ccccc32)c(O)c1` [Compound 4i, 3-((2-Hydroxy-4-methoxybenzylidene)hydrazono)indolin-2-one] are 242 to 243 °C, greater than 50 µM and 7.77 ± 0.008 µM.
Take `O=C1Nc2ccccc2C1=NN=Cc1c(Cl)cccc1Cl` [Compound 4j, 3-((2,6-Dichlorobenzylidene)hydrazono)indolin-2-one]: the melting point lay within 286 to 287 °C. In series [1], the IC50 amounted to 26 ± 2.24 µM and the “inhibitory activity” value is reported as “a little inhibitory activity”. Moreover, the IC50 at CDK2/CyclinA2 is 0.245 µM and 0.246 µM. In series [2], this compound displayed an IC50 of 1.51 ± 0.09 µM.
On to `O=C1Nc2ccccc2C1=NN=Cc1c(F)cccc1Cl` [Compound 4k, 3-((2-Chloro-6-fluorobenzylidene)hydrazono)indolin-2-one], for which the IC50 in series [1] is 27 ± 3.2 µM; at CDK2/CyclinA2, 0.3 µM and 0.301 µM; in series [2], 3.56 ± 0.31 µM. Further, the “inhibitory activity” value in series [1] is on record as “a little inhibitory activity”.
Take `COc1cccc2c1C(=O)c1c(O)c3c(c(O)c1C2=O)C[C@@](O)(C(=O)CO)C[C@@H]3O[C@H]1C[C@H](N)[C@H](O)[C@H](C)O1` [Doxorubicin, reference compound]: the IC50 in series [1] came to 0.2 ± 0.03 µM; in series [2] it was 3.1 ± 0.29 µM.
